From US10212958B2, “Method for producing stabilized whole wheat flour” (Intercontinental Great Brands LLC, priority 2011, dated 2019) come the findings set out here.

Where “and” joins values, the source holds several entries; their conditions need not be identical. Identical values can stand only once.

Data set [1] concerns free fatty acids formed in whole grain flour. Kind of data set: Free fatty acid content of whole grain flour, fresh and after accelerated storage (SPE, GC-FID). Set-up: species or system wheat. As to the method:
The objective of this example was to test the effect of acid tempering on the stability of whole grain flour during storage. The amount of free fatty acid formed was measured after flour storage in a sealed glass jar for 30 days under accelerated storage conditions of 92° F. […] The flours tested were: […] Results were compared to the amount of free fatty acids formed in untreated control flour. Whole grain flours were made with natural proportion of bran component and endosperm obtained from the flour mill. Whole grain flour ash content was used to confirm composition. Free fatty acid content of whole grain flour (fresh flour and 30 days aged flour) was determined according to the following method: Free fatty acid content of the flours was adapted from the method set forth in “Jong, C.; Badings, H. T.; Journal of High Resolution Chromatography; 1990; Determination of Free Fatty Acids in Milk and Cheese Procedures for Extraction, Clean up, and Capillary Gas Chromatography Analysis”. Lipid extracts, containing free fatty acids, are obtained from foods by extraction with acidified organic solvents. The anhydrous lipid extracts are passed through a weak anion exchange SPE cartridge to isolate the free fatty acids from the coextracted material, particularly neutral glycerides. • a. […] HP5890 Series II] • b. Autosampler compatible with the GC, [example: HP7673] • c. Software system capable of collecting chromatographic data, calculating statistics and tabulating results • d. Analytical balance with 0.0001 g resolution, 150 g capacity • e. Centrifuge capable of 3000 rpm (2050 rcf), with temperature control, (optional) • f. Polytron able to homogenize samples at 25000 rpm [example: Brinkmann Instruments, Polytron Kinematica AG Model PT 1300 D] • g. Vortex Mixer • h. Solvent Dispensers with inert plastic components [example: […] Column: […] SPE cartridges: […] Glass centrifuge test tubes with teflon lined screw caps, size: 16×125 mm • 4. Corex glass centrifuge tubes with teflon lined screw caps, 45 mL [example: COREX II No. 8422-A] • 5. Whatman Filter paper #1, 125 mm Diameter • 6. Pyrex brand filtering funnel, short stem • 7. Disposable Culture Tubes, borosilicate glass 16×150 mm [example: VWR Cat #47729-580] • 8. Glass vials with teflon lined screw caps, 4 mL. [example: Kimble Cat #60940A 4] • 9. Autosampler vials, borosilicate glass, crimp-top with teflon lined caps • 10. Amber borosilicate bottles with teflon lined screw cap, 100 mL • 11. Clear borosilicate bottle with teflon lined screw cap, 250 mL • 12. Graduated cylinders: 250 mL, 100 mL • 13. […] Glass volumetric pipettes class A 5, 2, 1 mL and graduated 10, 5 mL • 15. Disposable Pasteur pipettes: 53⁄4 and 9 inch • 16. Microspatula, spatula, and polypropylene sample transfer tubes Reagents/Solutions Reagents and Standards • 1. Ethanol-200 proof, anhydrous, 99.5%+, stored in amber glass [Aldrich #45, 983-6 or equivalent] • 2. Hexanes-GC grade [B&J #216-4 or equivalent] • 3. iso-Propanol-GC grade [B&J #323-4 or equivalent] • 4. Methyl-tert-butylether (MTBE)-GC grade [B&J #242-4 or equivalent] • 5. Methylene chloride-GC grade [B&J #299-4 or equivalent] • 6. […] Sulfuric acid-ACS reagent, 95.0-98.0% [Fisher Reagent ACS #A800-500 or equivalent] • 8. Water Type 1 [Fisher HPLC #W5-4 or equivalent] • 9. Diatomaceous Earth [Leco part #502-327 or equivalent] • 10. […] Standards (Standard Preparation See Appendix 13.1) • a. Internal Standard: 11:0; Surrogates: 9:0 and 13:0 • b. Matrix Spike (MS) standard working solution in ethanol: MS @ 50 µg/mL. This level may be appropriate for low to mid-level determinations. Generally the FFA levels vary tremendously within a given matrix. Consequently a spike solution of varying amounts per individual FFA may be necessary per matrix. • c. Calibration Standards in hexanes establish linear range: […] Comment: 18:1 and 18:2 calculations are based on 18:0 response factor. • d. […]

The nature of data set [2]: Whole grain flour pH in 10% slurry. The format is physicochemical.
A short description of data set [3]: Solvent Retention Capacity (SRC) of flour, adapted from AACC 56-10. It is filed as physicochemical. Set-up: Flour SRC sucrose / Flour SRC Sodium carbonate / Flour SRC Lactic acid / Flour SRC Water: unit not given here. As to the method: Solvent Retention Capacity (SRC) serves as a practical test to monitor the function of specific flour components, such as the amount of damaged starch. The SRC assay method used was adapted and modified from AACC method 56-10, according to the following procedure:
• 50 ml centrifuge tubes+caps • 5% weight sodium carbonate solvent • Centrifuge (IEC, Centra GP8, 269 rotor, 2130 rpm) Procedure: • 1. Weigh 50 ml centrifuge tubes+caps (for special tubes weight O-ring seals) • 2. Weigh and add 5.00 g of bran-germ mixture to each tube (determine moisture content of mixture) • 3. Add 25 g of solvent (pre-weighed solvent aliquots) to each tube • 4. Allow it to hydrate for 20 min, shaking every 5 min (5, 10, 15, 20) • 5. Centrifuge for 15 min at 1000×g • 6. Decant supernatant and drain 5 min at 45° angle and 5 min at 90° angle. • 7. Put cap back and weigh pellet

The nature of data set [4]: AACC 10-53 Cookie Test Baking. Particulars: lactic acid 3000 ppm, green tea extract 7000 ppm. From the text: AACC 10-53 Cookie Test Baking Method was designed at Nabisco Biscuit Company for evaluation of ingredient functionality and predictive correlation between sensory and mechanical texture analysis (mechanical texture analysis by TAXT2 Texture analyzer 3 point bend or puncture test). The test is an improvement over AACC 10-52 Sugar-Snap Cookie Test Baking Method as confirmed by USDA Soft Wheat Quality Lab (Wooster Ohio). The AACC 10-53 test was adopted as the official method of the American Association of Cereal Chemists after collaborative testing by the Soft Wheat Quality Committee in 1992. The equipment, cookie dough composition, mixing procedure, baking procedure, measurement procedure, etc. used in the test are: The Standard Formulation AACC 10-53 Single Batch to Make 4 Test Cookies is: [table] [table] The general mixing procedure used is: The baketime is defined as the time required to produce a weight loss of 13.85% during baking of the formulation at 400 F. Portion four 60 g pieces of dough with minimum deformation and place on cookie sheet. Lay rolling pin across gauge bars of cookie sheet allowing weight of pin to compress the dough pieces without additional compressive force. Pick up rolling pin and place on gauge bars at end of cookie sheet, and roll only once away from you. Cut cookies with 60 mm cutter, and carefully lift scrap dough with small spatula. […]

The subject of data set [5] is Novozyme lipase from Aspergillus oryzae. Kind of data set: Titrimetric lipase activity after 40 min pre-incubation of the enzyme in acid solution. The format is biochemical. How it is done: The objective of this example was to test the effect of acid type and concentration on the lipase activity after pre-incubation of the enzyme for 40 minutes in acid solution. The following acids and levels were tested; (1) 5 ml lactic acid (8 g/1000 ml pH 2.57), add 20 μl lipase and 980 μl water inhibition 40 min; (2) 5 ml lactic acid (2 g/1000 ml pH 2.85), add 20 μl lipase and 980 μl water inhibition 40 min; (3) 5 ml lactic acid (16 g/1000 ml pH 2.48), add 20 μl lipase and 980 μl water inhibition 40 min; (4) 5 ml acetic acid (1 g/1000 ml pH 2.80), add 20 μl lipase and 980 μl water inhibition 40 min; (5) 5 ml HCL (4 g/1000 ml, pH 1.5), add 20 μl lipase and 980 μl water inhibition 40 min; (6) 5 ml green tea extract (8 g/1000 ml), add 20 μl lipase and 980 μl water inhibition 40 min.
Lipase (3.1.1.3) activity was adapted from the method set forth in “Worthington, Von.; The Worthington Manual; 1993 from Worthington Biochemical Corporation, 730 Vassar Avenue, Lakewood, N.J. 08701”.
H. Olive oil-gum Arabic emulsion: Prepare by dissolving 16.5 grams of gum Arabic in 130 ml of reagent grade water. Once the material is in solution, dilute to a final volume of 165 ml with reagent grade water. Add 20 ml of reagent grade olive oil and 15 grams crushed ice. Blend the mixture in a Waring blender at low speed for 3 min and filter the emulsion through glass wool. Prepare fresh daily. Enzyme:
The titration can be measured with a laboratory pH meter (a Corning pH meter 360i equipped with A-58905-66 High-performance combination pH electrode).
Blank rate determination: Adjust the pH of the reaction mixture to 8.0 and record the volume of titrant required to maintain the pH at 8.0 for 3-4 minutes after a constant rate is achieved. Determine the “blank rate” as the volume of titrant added per minute from the final linear portion of the curve.
Sample determination: at zero time, add appropriately diluted enzyme and readjust the pH to 8.0 if necessary. Record the volume of titrant required to maintain the pH at 8.0 for 5-6 minutes. Determine the “sample rate” as the volume of titrant added per minute from the linear portion of the curve.

Data set [6] is described as follows: Flour moisture (AACC Method 44-15A). The format is physicochemical. As to conditions: coarse bran fraction before recombining. As to the method: Whole grain flour pH was measured in a 10% slurry (one part flour to 9 part water) using a Corning pH meter 360i equipped with an A-58905-66 High-performance combination pH electrode. Ash is determined according to AOAC official method 923.03 for measuring ash in flour. Flour moisture was determined according to AACC Method 44-15A.

Where [7] appears, read: after 30 days at 92 F, flour at about pH=4.5.
Where [8] appears, read: lactic acid 3000 ppm, green tea extract 7000 ppm.

Regarding `O=P(O)(O)O` [phosphoric acid], in data set [1] (setting [7]), the “Flour fatty acid formation” value stood at 1592 ppm.

Regarding `CC(O)C(=O)O` (stereo not shown) [Lactic acid, lactic acid], the “Flour fatty acid formation” value in data set [1] (after 28 days at 92 F, about 9000 ppm lactic acid concentration and 4.5 pH) was 1425 ppm; in data set [1] (setting [7]) it was 1382 ppm. Besides, the “Whole grain flour fatty acid content after storage” value in data set [1] (storage at 82 F, compared to control, Example 9) is on record as “reduced compared to control”. Also, in data set [1] (whole grain flour, lactic acid 3000 ppm, green tea extract 7000 ppm (dry weight/initial kernel weight)), the “FFA (ppm) 3 week at 28 C.” value is 2628 ppm and 2364 ppm. Also, the “break flour pH” value in data set [2] (break flour fraction before recombining) is 4.88. The “fine bran pH” value in data set [2] (fine bran fraction before recombining) is 4.52. Besides, the “Flour pH” value in data set [2] (setting [8]) is 5.54 and 5.56; in data set [2] (soft red whole grain flour from treated wheat) it was 5.6. Besides, the “flour strength as measured by lactic acid SRC value” in data set [3] (as a function of temper time and amount of lactic acid added, FIG. 7) is on record as “did not decrease flour strength”. Further, the “Flour SRC Lactic acid” value in data set [3] (setting [8]) is 69.11 and 69.40. The “Flour SRC Sodium carbonate” value in data set [3] (setting [8]) was 76.58 and 78.67. Also, in data set [3] (setting [8]), the “Flour SRC Water” value was 59.53 and 60.35. Also, the “Flour SRC sucrose” value in data set [3] (setting [8]) is 95.77 and 94.23. For the same compound, the “Cookie dough pH” value in data set [4] was 7.65 and 7.52. Besides, the Lipase activity in data set [5] (40 min acid pre-treat 0.02 g/15 ml, 0.015 M, pH 2.85) is 6.45 Units/μl; in data set [5] (40 min acid pre-treat 0.04 g/15 ml, 0.030 M, pH 2.57) it was 5.8 Units/μl; in data set [5] (40 min acid pre-treat 0.08 g/15 ml, 0.059 M, pH 2.48), 4.15 Units/μl. Moreover, the coarse bran moisture in data set [6] was 14.49.

As for `CC(=O)O` [Acetic acid, acetic acid], in data set [5] (40 min acid pre-treat 0.005 g/15 ml, 0.006 M, pH 2.8), the Lipase activity is on record as 5.33 Units/μl.

For `Cl` [hydrochloric acid], the “Flour fatty acid formation” value in data set [1] (setting [7]) is 746 ppm. Also, the Lipase activity in data set [5] (40 min acid pre-treat 0.02 g/15 ml, 0.036 M, pH 1.5) is 0 Units/μl.
